ChEMBL document CHEMBL1649461, “Fitness cost of VanA-type vancomycin resistance in methicillin-resistant Staphylococcus aureus” (2009)
≈ marks a conversion by molar mass, not a printed value.

Legend:
Assay type in all cases: functional
Staphylococcus aureus [1] = experiment: Antimicrobial activity against methicillin-resistant Staphylococcus aureus HIP11713 by broth dilution method
Staphylococcus aureus [2] = experiment: Antimicrobial activity against VanA-type vancomycin-resistant and methicillin-resistant Staphylococcus aureus 1 by broth dilution method
Staphylococcus aureus [3] = experiment: Antimicrobial activity against VanA-type vancomycin-resistant and methicillin-resistant Staphylococcus aureus 5 by broth dilution method
Staphylococcus aureus [4] = experiment: Antimicrobial activity against VanA-type vancomycin-resistant and methicillin-resistant Staphylococcus aureus 6 by broth dilution method

CC(=O)N[C@@H]1[C@H](Oc2c3cc4cc2Oc2ccc(cc2Cl)[C@@H](O[C@@H]2O[C@@H](CO)[C@@H](O)[C@H](O)[C@@H]2NC(C)=O)[C@@H]2NC(=O)[C@H](NC(=O)[C@@H]4NC(=O)[C@H]4NC(=O)[C@@H](Cc5ccc(c(Cl)c5)O3)NC(=O)[C@H](N)c3ccc(O)c(c3)Oc3cc(O)cc4c3)c3ccc(O)c(c3)-c3c(O[C@H]4O[C@H](CO)[C@@H](O)[C@@H](O)[C@@H]4O)cc(O)cc3[C@@H](C(=O)O)NC2=O)O[C@@H](CO)[C@@H](O)[C@@H]1O
MIC (Staphylococcus aureus [1]): 1 µg/mL (≈ 0.566 µM) | MIC (Staphylococcus aureus [2]): 256 µg/mL (≈ 145 µM) | MIC (Staphylococcus aureus [3]): 64 µg/mL (≈ 36.2 µM) | MIC (Staphylococcus aureus [4]): 128 µg/mL (≈ 72.4 µM)

CN[C@H](CC(C)C)C(=O)N[C@H]1C(=O)N[C@@H](CC(N)=O)C(=O)N[C@H]2C(=O)N[C@H]3C(=O)N[C@H](C(=O)N[C@H](C(=O)O)c4cc(O)cc(O)c4-c4cc3ccc4O)[C@H](O)c3ccc(c(Cl)c3)Oc3cc2cc(c3O[C@@H]2O[C@H](CO)[C@@H](O)[C@H](O)[C@H]2O[C@H]2C[C@](C)(N)[C@H](O)[C@H](C)O2)Oc2ccc(cc2Cl)[C@H]1O [VANCOMYCIN]
MIC (Staphylococcus aureus [2]): 2050 µg/mL (≈ 1410 µM) | MIC (Staphylococcus aureus [3]): 1020 µg/mL (≈ 707 µM) | MIC (Staphylococcus aureus [4]): 1020 µg/mL (≈ 707 µM)
